The series is described as follows: Metabolic stability in rat liver microsomes (RLMs). To be noted: for TIC value of compound, 0 min, R1 / TIC value of compound, 0 min, R3 / TIC value of compound, 5 min, R1 / TIC value of compound, 5 min, R3 / TIC value of compound, 15 min, R1 / TIC value of compound, 15 min, R3 / TIC value of compound, 30 min, R1 / TIC value of compound, 30 min, R3 / TIC value of compound, 60 min, R1 / TIC value of compound, 60 min, R3: rat liver microsomes; for microsomal CLint / half-life: rat; for TIC value of compound, metabolic stability RLM: replicates R1-R3. In general terms: Liver microsomes are a subcellular fraction often used to study metabolism.

Setting [1] is: CL (ul/min/mg protein), R1, RLM CL, replicate R1, unrounded.
[2] abbreviates: CL (ul/min/mg protein), R2, RLM CL, replicate R2, unrounded.
[3] abbreviates: CL (ul/min/mg protein), R3, RLM CL, replicate R3, unrounded.
The mark [4] stands for this setting: Half Life (min), R1, RLM metabolic stability, replicate R1.
Setting [5] is: Half Life (min), R2, RLM metabolic stability, replicate R2.
The mark [6] stands for this setting: Half Life (min), R3, RLM metabolic stability, replicate R3.
Where [7] appears, read: microsomes, Metabolic stability: Half life T1/2 (min), RLMs, mean and SD, three measurements.
Setting [8] is: microsomes, Metabolic stability: RLM CL (ul/min/mg), RLMs, mean and SD, three measurements.
Setting [9] is: microsomes, RLM CL, Average, average of R1-R3.
Where [10] appears, read: microsomes, RLM CL, R1, RLM CL, replicate R1, summary block.
[11] abbreviates: microsomes, RLM CL, R2, RLM CL, replicate R2, summary block.
[12] abbreviates: microsomes, RLM CL, R3, RLM CL, replicate R3, summary block.
Setting [13] is: microsomes, CL (ul/min/mg protein), R1, RLM CL, replicate R1, unrounded.
Where [14] appears, read: microsomes, CL (ul/min/mg protein), R2, RLM CL, replicate R2, unrounded.
The mark [15] stands for this setting: microsomes, CL (ul/min/mg protein), R3, RLM CL, replicate R3, unrounded.
The mark [16] stands for this setting: microsomes, Half Life (min), R1, RLM metabolic stability, replicate R1.
[17] abbreviates: microsomes, Half Life (min), R2, RLM metabolic stability, replicate R2.
Where [18] appears, read: microsomes, Half Life (min), R3, RLM metabolic stability, replicate R3.

SMILES strings stand for the structures. Values joined by “and” are separate entries in the source; they are usually repeats but may differ in a detail not shown here. Equal entries are not always repeated.

The values below come from publication PMC11062899, “De novo development of small cyclic peptides that are orally bioavailable” (Nature Chemical Biology, 2023).

A word on the microsomal CLint: it is the rate of metabolic loss divided by the concentration. By half-life is commonly meant the time needed for the level to fall by half in the phase considered. A higher half-life goes with slow loss. As for `O=C1C[C@H]2CCCN2C(=O)[C@H](Cc2ccccc2)NC(=O)[C@@H](NC(=O)c2ccc(Cl)s2)CCSC/C=C/CSCCN1` [compound 34], under “0 min, replicate R1”, the “TIC value of compound, 0 min, R1” value was determined as 12429096. Also, the “TIC value of compound, 0 min, R3” value (0 min, replicate R3) is listed as 11063826. Also, the “TIC value of compound, 5 min, R1” value (5 min, replicate R1) was found to be 11351623. For the same molecule, where the note is “5 min, replicate R3”, the “TIC value of compound, 5 min, R3” value was 10806046. In addition, the “TIC value of compound, 15 min, R1” value (15 min, replicate R1) was found to be 7245055. Also, under “15 min, replicate R3”, the “TIC value of compound, 15 min, R3” value is given as 6630237. For the same molecule, the “TIC value of compound, 30 min, R1” value (30 min, replicate R1) was 4320756. For the same molecule, the “TIC value of compound, 30 min, R3” value (30 min, replicate R3) is 3830533. Moreover, under “60 min, replicate R1”, the “TIC value of compound, 60 min, R1” value was 1228797. In addition, for the setting “60 min, replicate R3”, the “TIC value of compound, 60 min, R3” value was 1213522. The intrinsic metabolic clearance (microsomal CLint) stood at 69.7 µL/min/mg under setting [1]; 85.6 µL/min/mg under setting [2]; 66.4 µL/min/mg under setting [3]; 74 ± 8 µL/min/mg under setting [8]; 73.9 µL/min/mg under setting [9]; 69.7 µL/min/mg under setting [10]. Moreover, the intrinsic clearance (microsomal CLint) is, setting by setting: under setting [11], 85.6 µL/min/mg; under setting [12], 66.4 µL/min/mg. The half-life is, setting by setting: under setting [4], 19.9 min; under setting [5], 16.2 min; under setting [6], 20.9 min; under setting [7], 19 ± 2 min.

As to `O=C1C[C@H]2CCCN2C(=O)[C@H](Cc2ccccc2)NC(=O)[C@@H](NC(=O)c2ccc(Cl)s2)CCCSC/C=C/CSCCN1` [compound 36], the “TIC value of compound, 0 min, R1” value (0 min, replicate R1) is given as 9960125. The “TIC value of compound, 0 min, R3” value (0 min, replicate R3) came out at 9584351. Also, the “TIC value of compound, 5 min, R1” value (5 min, replicate R1) is on record as 8960155. In addition, where the note is “5 min, replicate R3”, the “TIC value of compound, 5 min, R3” value came out at 9591941. Besides, the “TIC value of compound, 15 min, R1” value (15 min, replicate R1) was 6029519. Further, under “15 min, replicate R3”, the “TIC value of compound, 15 min, R3” value is listed as 6211335. The “TIC value of compound, 30 min, R1” value (30 min, replicate R1) is reported as 3459884. The “TIC value of compound, 30 min, R3” value (30 min, replicate R3) was 2699618. The “TIC value of compound, 60 min, R1” value (60 min, replicate R1) is given as 607530. Also, the “TIC value of compound, 60 min, R3” value (60 min, replicate R3) is reported as 705245. In addition, the microsomal CLint is, setting by setting: under setting [13], 70.7 µL/min/mg; under setting [14], 61.9 µL/min/mg; under setting [15], 69.3 µL/min/mg; under setting [8], 67 ± 4 µL/min/mg; under setting [9], 67.3 µL/min/mg; under setting [10], 70.7 µL/min/mg. Further, the intrinsic clearance (microsomal CLint) came to 61.9 µL/min/mg under setting [11] and 69.3 µL/min/mg under setting [12]. The half-life reads like this: under setting [16], 19.6 min; under setting [17], 22.4 min; under setting [18], 20 min; under setting [7], 21 ± 1 min.

Consider `O=C1C[C@H]2CCCN2C(=O)[C@H](Cc2ccccc2)NC(=O)[C@@H](NC(=O)c2ccc(Cl)s2)CCCSCc2cccc(n2)CSCCN1` [compound 35], for which the “TIC value of compound, 0 min, R1” value (0 min, replicate R1) is recorded as 23625921. Also, the “TIC value of compound, 0 min, R3” value (0 min, replicate R3) worked out at 25801224. The “TIC value of compound, 5 min, R1” value (5 min, replicate R1) was 20860918. Further, the “TIC value of compound, 5 min, R3” value (5 min, replicate R3) was found to be 23019710. Moreover, the “TIC value of compound, 15 min, R1” value (15 min, replicate R1) turned out to be 12779197. Also, the “TIC value of compound, 15 min, R3” value (15 min, replicate R3) is 13375542. The “TIC value of compound, 30 min, R1” value (30 min, replicate R1) came to 7192264. Further, the “TIC value of compound, 30 min, R3” value (30 min, replicate R3) worked out at 5638202. Moreover, under “60 min, replicate R1”, the “TIC value of compound, 60 min, R1” value is given as 1618321. For the same molecule, the “TIC value of compound, 60 min, R3” value (60 min, replicate R3) is given as 1784495. The microsomal CLint under setting [1] turned out to be 79 µL/min/mg; the intrinsic clearance (microsomal CLint) under setting [2] stood at 90.4 µL/min/mg; the intrinsic metabolic clearance (microsomal CLint) under setting [3] was determined as 88.3 µL/min/mg; the microsomal CLint under setting [8] came out at 86 ± 5 µL/min/mg; the intrinsic clearance (microsomal CLint) under setting [9] turned out to be 85.9 µL/min/mg; the microsomal CLint under setting [10] worked out at 79 µL/min/mg. Also, the microsomal CLint by setting is: under setting [11], 90.3 µL/min/mg; under setting [12], 88.3 µL/min/mg. Further, the half-life is, setting by setting: under setting [4], 17.6 min; under setting [5], 15.3 min; under setting [6], 15.7 min; under setting [7], 16.2 ± 1 min.

For the molecule `O=C1CSCCC[C@H](NC(=O)c2ccc(Cl)s2)C(=O)N[C@@H](Cc2ccccc2)C(=O)N2CCC[C@@H]2CC(=O)NCCSC1` [compound 37], the “TIC value of compound, 0 min, R1” value (0 min, replicate R1) is listed as 9508843. For the same molecule, the “TIC value of compound, 0 min, R3” value (0 min, replicate R3) worked out at 9444065. In addition, the “TIC value of compound, 5 min, R1” value (5 min, replicate R1) amounted to 8851267. For the same molecule, the “TIC value of compound, 5 min, R3” value (5 min, replicate R3) was 7487448. Moreover, the “TIC value of compound, 15 min, R1” value (15 min, replicate R1) is reported as 4635928. Besides, the “TIC value of compound, 15 min, R3” value (15 min, replicate R3) was 4037534. Besides, the “TIC value of compound, 30 min, R1” value (30 min, replicate R1) came out at 2932536. For the setting “30 min, replicate R3”, the “TIC value of compound, 30 min, R3” value was found to be 1896940. The “TIC value of compound, 60 min, R1” value (60 min, replicate R1) amounted to 631769. For the same molecule, the “TIC value of compound, 60 min, R3” value (60 min, replicate R3) came to 473870. The microsomal CLint by setting is: under setting [13], 81.1 µL/min/mg; under setting [14], 98 µL/min/mg; under setting [15], 107 µL/min/mg; under setting [8], 95 ± 11 µL/min/mg; under setting [9], 95.4 µL/min/mg; under setting [10], 81.1 µL/min/mg. In addition, the microsomal CLint was found to be 98 µL/min/mg under setting [11] and 107 µL/min/mg under setting [12]. For the same molecule, the half-life by setting is: under setting [16], 17.1 min; under setting [17], 14.2 min; under setting [18], 12.9 min; under setting [7], 14.7 ± 1.7 min.

As to `O=C1C[C@H]2CCCN2C(=O)[C@H](Cc2ccccc2)NC(=O)[C@@H](NC(=O)c2ccc(Cl)s2)CSC/C=C/CSCCN1` [peptide 32], the “TIC value of compound, metabolic stability RLM” value was 4102350 (2×) and 4260631 (0 min); 2223511 and 2018425 and 2686035 (5 min); 283425 and 185564 and 435364 (15 min); 0 (2×) and 35161 (30 min); 0 (60 min). Also, under “0 min, replicate R1”, the “TIC value of compound, 0 min, R1” value is recorded as 4102350. Besides, for the setting “0 min, replicate R3”, the “TIC value of compound, 0 min, R3” value is reported as 4260631. The “TIC value of compound, 5 min, R1” value (5 min, replicate R1) is reported as 2223511. The “TIC value of compound, 5 min, R3” value (5 min, replicate R3) was determined as 2686035. For the same molecule, where the note is “15 min, replicate R1”, the “TIC value of compound, 15 min, R1” value was determined as 283425. The “TIC value of compound, 15 min, R3” value (15 min, replicate R3) is reported as 435364. Moreover, for the setting “30 min, replicate R1”, the “TIC value of compound, 30 min, R1” value is listed as 0. For the same molecule, for the setting “30 min, replicate R3”, the “TIC value of compound, 30 min, R3” value amounted to 35161. Besides, where the note is “60 min, replicate R1”, the “TIC value of compound, 60 min, R1” value came to 0. For the same molecule, for the setting “60 min, replicate R3”, the “TIC value of compound, 60 min, R3” value is 0. Besides, the intrinsic clearance (microsomal CLint) under setting [1] amounted to 278 µL/min/mg; the microsomal CLint under setting [2] was 276 µL/min/mg; the intrinsic metabolic clearance (microsomal CLint) under setting [3] stood at 234 µL/min/mg; the microsomal CLint (microsomes, Clearance (CL) in RLMs, calculated from half-life, mean and s.d. of three measurements) is 260 ± 20 µL/min/mg; the microsomal CLint under setting [9] was determined as 263 µL/min/mg; the microsomal CLint under setting [10] was determined as 278 µL/min/mg. The microsomal CLint reads like this: under setting [11], 276 µL/min/mg; under setting [12], 234 µL/min/mg. For the same molecule, the half-life was determined as 4.98 min (Half Life (min) in RLMs (single replicates R1–R3), Fig. 5e source data); 4.98 min under setting [4]; 5.02 min under setting [5]; 5.93 min under setting [6]; 4.98 min (microsomes, Half Life, RLM, individual replicates R1-R3); 5.3 ± 0.4 min under setting [7].
